Laboratory results taken from EP4729516A1, “S[…] DERIVATIVE, INTERMEDIATE, PREPARATION METHOD THEREFOR AND USE THEREOF” (Jiangsu NHWA Pharmaceutical Co., Ltd, priority 2023, dated 2024).

Experiments:
[1] = system: Male SD rats; experiment: Fluctuations in blood pressure and heart rate after administration; format: in vivo
Method: Male SD rats, weighing 250-300 g, with 4 rats per group, were maintained under general anesthesia by isoflurane inhalation. Femoral artery cannulation was performed, and blood pressure and heart rate were monitored using a Powerlab data acquisition and analysis system. 30 min after the baseline values stabilized, the baseline mean arterial pressure (MAP0) and baseline heart rate (HR0) were measured. The rats were given a solution of each compound in normal saline via tail vein injection (the dose of each compound was the same as in Test Example 3, with rapid intravenous injection over 10 s). Blood pressure and heart rate were continuously recorded for 90 min. MAP^+ (the difference between the maximum mean arterial pressure (MAPmax) and MAP0), MAP^-(the difference between the minimum mean arterial pressure (MAPmin) and MAP0), and HR^- (the difference between the minimum heart rate (HRmin) and HR0) within 90 min were calculated. For calculation, the maximum increase rate of mean arterial pressure = MAP^+/MAP0 × 100%; the maximum decrease rate of mean arterial pressure = MAP^-/MAP0 × 100%; and the maximum decrease rate of heart rate = HR^-/HR0 × 100%.

[2] = system: Male SD rats; experiment: Hypnotic efficacy: loss of righting reflex (LORR) in rats; format: in vivo
Method: The sequential method was used to determine the ED50 (median effective dose) for the loss of righting reflex (LORR) by the compounds of the present disclosure in rats: Male SD rats, weighing 200-300 grams, were used. Each compound was dissolved in normal saline and administered via tail vein injection at an initial dose at a constant injection rate over 10 s (one rat per dose). […] This process was repeated, and the results were recorded in the AOT425 Statpm software until the software could calculate the ED50, at which point the experiment was terminated. The hypnotic efficacy of the compounds of the present disclosure was evaluated using ED50 with lower ED50 values indicating stronger efficacy.
Comparison of onset time and duration: Male SD rats, weighing 200-300 grams, were used. Each compound was dissolved in normal saline and administered via tail vein injection at a constant injection rate over 10 s, with 10 rats per group. […] The onset time and duration were recorded.
The onset time refers to the period from the completion of injection to when the rat is placed in a supine position, with the criterion for loss of righting reflex defined as the rat's inability to spontaneously revert to a prone position using its forelimbs and maintained for ≥10 s, which serves as an indicator of compound efficacy; the duration refers to the sustained period during which the rat remains in a state of losing righting reflex. The spontaneous recovery of the righting reflex in the rat is considered the cessation of the efficacy.

[3] = in words, compared with dexmedetomidine hydrochloride, rats
[4] = isoflurane-anesthetized male SD rats, tail vein injection, dose as in Test Example 3
[5] = isoflurane-anesthetized male SD rats, tail vein injection, dose as in Test Example 3, within 90 min
[6] = loss of righting reflex, male SD rats, tail vein injection, dose twice the ED50, 10 rats per group

CC(c1c[nH]cn1)c1cccc2c1COC2 (stereo not drawn) [Compound 5, 4-[1-(1,3-Dihydroisobenzofuran-4-yl)ethyl]-1H-imidazole]
maximum decrease rates of HR [1, 3]: lower | maximum increase rates of MAP [1, 3]: lower | recovery of HR [1, 3]: faster | HR decrease Duration [1, 4]: 30 min | MAP increase Duration [1, 4]: 2 min | HR decrease Maximum decrease rate [1, 5]: 24.7±4.5 % | MAP decrease Maximum decrease rate [1, 5]: 7.4±9.2% | MAP increase Maximum increase rate [1, 5]: 19.9±6.3% | decreases in MAP ([1]; no significant decreases greater than the stated value, rats): ≤ 10% | ED50 ([2]; Rattus norvegicus, loss of righting reflex, male SD rats, tail vein injection over 10 s, sequential method): 0.0625 mg/kg | Duration [2, 3]: significantly shorter | hypnotic onset time [2, 3]: comparable to or slightly longer | Duration [2, 6]: 531.10±559.16 S | Onset time [2, 6]: 99.20±29.98 S | induce sleep in rats ([2]; time to induce sleep, rats, dose twice the ED50): ≤ 5 min
